# Measured values taken from paper PMC11696576, “Next generation thiazolyl ketone inhibitors of cytosolic phospholipase A2 α for targeted cancer therapy” (Nature Communications, 2025).
# Values joined by “and” are separate entries in the source; they are usually repeats but may differ in a detail not shown here. Identical values can stand only once. Like-named read-outs stand apart in the source and are kept apart here.
# Tests used:
# secreted GV sPLA2 = biological target: T1, secreted GV sPLA2 (Homo sapiens, UniProt P39877); assay: radioactivity-based mixed micelle assay, GV sPLA2; assay type: biochemical
# T1 sequence (P39877 21-138): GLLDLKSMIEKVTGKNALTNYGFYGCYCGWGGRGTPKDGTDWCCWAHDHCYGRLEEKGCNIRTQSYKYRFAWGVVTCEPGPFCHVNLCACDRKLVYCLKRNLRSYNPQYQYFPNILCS
# Procedure: (§1) All synthesized thiazolyl ketones were tested for their in vitro inhibitory activity on recombinant human cPLA2α and selectivity over human calcium-independent GVIA iPLA2 and secreted GV sPLA2 using our previously described group-specific radioactivity-based mixed micelle assays. The inhibition results are presented either as per cent inhibition or as XI(50) values in Table 1. […] The XI(50) is defined as the mole fraction of the inhibitor in the total substrate interface required to inhibit the enzyme activity by 50%. For comparison purposes, previously published data for the inhibitor GK470[19] are included. […] Inhibitors were initially screened at 0.091 mol fraction (5 μL of 5 mM inhibitor in DMSO) in substrate (495 μL) in technical triplicates. […] The XI(50) value and stdev values reported are for the entire curve. This analysis was performed in GraphPad Prism v6.
# SW982 synoviocytes = assay: cellular arachidonic acid (AA) release assay, IL-1β stimulated; assay type: cell-based, human; conditions: for inhibition at 1 µM / EC50 / IC50: Homo sapiens; for EC50 / IC50: SW982; for IC50: concentration in µM, read-out: logEC50 best-fit value, AA release (converted)
# Excerpt: To test the inhibitory activity of the compounds in cells, we measured their effect on the release of AA from synoviocytes stimulated with IL-1β (Table 2). […] Combined with favorable selectivity and stability it was thus chosen for further evaluation. We looked specifically at how it modulated eicosanoid levels in response to stimulation both in whole blood and in isolated peripheral blood mononuclear cells (PBMCs) and checked for off-target effects on AA metabolism in whole blood by also measuring the effect of GK420 on eicosanoid release in the presence of exogenous free AA.
# The human synovial sarcoma cell line SW982 (ATCC, London, UK) was used to measure AA release. The cells were maintained in Dulbecco’s Modified Eagle Medium (DMEM) supplemented with 10% FBS, 0.1 mg/mL gentamicin, and 0.3 mg/mL L-glutamine at 37 °C with 10% CO2, and experiments were performed at 3 days post-confluence. To measure AA release, the cells were labeled overnight with ^3H-AA (0.4 μCi/mL) in serum-free DMEM and then washed twice with PBS containing fBSA (2 mg/mL) to remove unincorporated radioactivity. The inhibitors, or DMSO vehicle control, were subsequently added to the cells for 1 hour prior to stimulation with 10 ng/mL IL-1β for 4 h. Supernatants were collected and centrifuged at 300 × g for 5 min to clear them of detached cells and adherent cells were dissolved in 1 N NaOH. The ^3H-AA was assessed by liquid scintillation counting (LS 6500 Multi-Purpose Scintillation Counter, Beckman Coulter, Inc., USA) and the results are given as the inhibition of released ^3H-AA in the supernatants relative to total ^3H-AA incorporated into the cells, as described. EC50 values were calculated by fitting the % inhibition data to a three-parameter dose-response curve in GraphPad prism v10.4.0. Experiments were performed in technical triplicates and repeated at least three times.
# [1] = biological target: T2, human calcium-independent GVIA iPLA2 (Homo sapiens, UniProt O60733); assay: radioactivity-based mixed micelle assay, GVIA iPLA2; assay type: biochemical
# T2 sequence (O60733 1-806): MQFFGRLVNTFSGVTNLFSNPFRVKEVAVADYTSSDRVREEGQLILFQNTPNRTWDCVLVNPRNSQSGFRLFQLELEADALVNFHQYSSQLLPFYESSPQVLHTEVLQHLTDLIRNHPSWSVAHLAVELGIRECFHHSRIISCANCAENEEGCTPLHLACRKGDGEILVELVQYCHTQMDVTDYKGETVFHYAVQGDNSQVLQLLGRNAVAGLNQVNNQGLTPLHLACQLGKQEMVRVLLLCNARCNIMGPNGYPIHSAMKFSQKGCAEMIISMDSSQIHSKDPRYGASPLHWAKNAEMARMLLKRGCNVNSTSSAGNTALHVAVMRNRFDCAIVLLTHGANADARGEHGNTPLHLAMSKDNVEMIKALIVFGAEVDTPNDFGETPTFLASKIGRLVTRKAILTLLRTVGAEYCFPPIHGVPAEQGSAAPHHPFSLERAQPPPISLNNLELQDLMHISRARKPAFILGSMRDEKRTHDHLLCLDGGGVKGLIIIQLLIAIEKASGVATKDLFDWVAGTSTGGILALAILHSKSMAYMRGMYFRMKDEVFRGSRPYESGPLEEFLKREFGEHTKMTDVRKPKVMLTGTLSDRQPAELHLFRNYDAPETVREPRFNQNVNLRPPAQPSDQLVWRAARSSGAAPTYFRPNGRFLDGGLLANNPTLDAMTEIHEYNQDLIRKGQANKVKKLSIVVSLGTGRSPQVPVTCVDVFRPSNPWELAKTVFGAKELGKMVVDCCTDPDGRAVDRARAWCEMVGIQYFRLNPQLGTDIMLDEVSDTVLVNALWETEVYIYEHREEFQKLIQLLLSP
# Procedure: as §1
# [2] = 0.091 mole fraction, read-out: GV sPLA2 % Inhib
# [3] = individual technical replicate, read-out: sPLA2 % inhibition at 0.091 mole fraction
# [4] = 0.2 µM, individual biological replicate
# [5] = 1 µM, individual biological replicate
# [6] = 5 µM, individual biological replicate
# [7] = SW982, 4 h, 1 µM inhibitor, IL-1β 4 h, mean ± stdev, read-out: AA release % Inhib
# [8] = IL-1β 4 h, 0.2, 1 or 5 µM inhibitor, read-out: AA release EC50 µM (95% CI)
# [9] = [Agonist] vs. Response (three parameters)
# [10] = [Agonist] vs. Response (three parameters), read-out: EC50 best-fit value, AA release
# [11] = 0.091 mole fraction, read-out: GVIA iPLA2 % Inhib
# [12] = average of triplicates, read-out: iPLA2 % inhibition at 0.091 mole fraction, average
# [13] = individual technical replicate, read-out: iPLA2 % inhibition at 0.091 mole fraction
SMILES,inhibition at 0.091 mole fraction (secreted GV sPLA2; [2]),"inhibition at 0.091 mole fraction (secreted GV sPLA2; average of triplicates, read-out: sPLA2 % inhibition at 0.091 mole fraction, average)",sPLA2 % inhibition at 0.091 mole fraction (secreted GV sPLA2; individual technical replicate),inhibition at 0.091 mole fraction (secreted GV sPLA2; [3]),% inhibition of stimulated AA release (SW982 synoviocytes; [4]),% inhibition of stimulated AA release (SW982 synoviocytes; [5]),% inhibition of stimulated AA release (SW982 synoviocytes; [6]),"inhibition at 1 µM (SW982 synoviocytes; SW982, 1 µM, individual biological replicate, read-out: % inhibition of stimulated AA release)",inhibition at 1 µM (SW982 synoviocytes; [7]),EC50 (SW982 synoviocytes; [8]),IC50 (SW982 synoviocytes; [9]),EC50 (SW982 synoviocytes; [10]),"inhibition at 0.091 mole fraction [1, 11]","inhibition at 0.091 mole fraction [1, 12]","inhibition at 0.091 mole fraction [1, 13]"
COC(=O)c1csc(C(=O)COc2ccc(Oc3ccc(F)cc3)cc2)n1 [GK440],31%,30.8%,29.2%,34.1%,52.34% and 48.93% and 32.32% and 54.12%,77.97% and 89.75% and 95.95%,121.05% and 107.56% and 129.55% and 117.95%,90%,88 ± 8%,0.18 µM,0.184 µM,0.184 µM,0%,0%,0%
CCCCCCSc1ccc(OC(C)C(=O)c2nc(C(=O)OC)cs2)cc1 (stereo not drawn) [GK449],53%,,,51.8%,16.56% and 7.46% and 9.46% and 46.5%,47.16% and 43.5% and 67.91% and 74.94%,92.05% and 77.81% and 56.83% and 101.84%,,58 ± 15%,0.78 µM,0.783 µM,0.783 µM,67%,67.1%,73.4%
